Compound: CN(NC(=O)CC(=O)NN(C)C(=S)c1ccccc1)C(=S)c1ccccc1 [Elesclomol] + CCNC(=O)c1noc(-c2cc(C(C)C)c(O)cc2O)c1-c1ccc(CN2CCOCC2)cc1 [Luminespib] (partner 0.01 µM)
Test: relative viability (nuclei count vs DMSO), 5 days (fraction); higher = more cells survive
In short: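 Cells from lung cancer lines were seeded into 1536-well plates and, one day later, dosed by pin tool. Treatments were either a single drug or a fixed dose of an anchor drug with five library-drug doses (not always all listed) in √10 steps. After 5 days, nuclei were stained in a one-step fixation (final 0.05% Triton X-100, 1% formaldehyde, 1 ug/ml Hoechst) and counted on 4× images, and relative viability is the treated-to-vehicle nuclei ratio, as the median of duplicate plates.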

Cell Line | relative viability (first compound 0.003162 µM) | relative viability (first compound 0.01 µM) | relative viability (first compound 0.03162 µM) | relative viability (first compound 0.1 µM)
NCI-H647 | 0.113 | 0.0912 | 0.0748 | 0.0628
NCI-H2009 | 0.977 | 0.494 | 0.167 | 0.116
EPLC-272H | 0.333 | – | 0.576 | 0.125
NCI-H520 | 0.238 | 0.188 | 0.193 | 0.164
NCI-H2405 | 0.684 | 0.554 | 0.265 | 0.299
NCI-H2085 | 0.421 | 0.393 | 0.321 | 0.248
NCI-H322M | 0.311 | 0.288 | 0.231 | 0.14
NCI-H1944 | 0.73 | 0.682 | 0.654 | 0.371
LC-2-ad | 0.497 | 0.47 | 0.33 | 0.265
NCI-H358 | 0.194 | 0.141 | 0.137 | 0.117
NCI-H2170 | 0.735 | 0.624 | 0.646 | 0.435
A-427 | 0.701 | 0.498 | 0.27 | 0.117
NCI-H1666 | 0.962 | 0.788 | 0.521 | 0.484
LOU-NH91 | 0.334 | 0.339 | 0.33 | 0.28
ABC-1 | 0.254 | 0.206 | 0.322 | 0.223
NCI-H1651 | 0.944 | 0.361 | 0.157 | 0.0878
201T | 1.01 | 1.02 | 0.978 | 0.562
